Where two headings read alike, the source gives them in different places.

Data set [1] can be described thus: Liquid stability / solubility of high-concentration EMES in water with C8 amine oxide. Particulars: 25% EMES, about 2% C8 AO; FIG. 6b.
Procedure: Similar approaches were taken for examining the impact of increasing EMES concentration on liquid stability (i.e., examining the solubility of the surfactant in solution at a given concentration), and the ability of hydrotropes to improve EMES solubility. Specifically, samples of EMES in water were prepared at different concentrations and observed as described above for any evidence of instability or poor solubility.
Data set [2] is described as follows: Storage stability (Pass/Fail) of base liquid detergent formulation with 9.5% EMES plus candidate hydrotrope. The format is physicochemical. Set-up: key: a sample was said to “Pass” if it remained a clear isotropic liquid at the indicated challenge temperature; a sample was said to “Fail” if it showed any of the above-described evidence of instability or insolubility.

The nature of data set [3]: Rheology, 40 mm circular plate rheometer (flowability/pumpability). The following applies: agent at about 5% to about 8%; results not shown. The data set is classed as physicochemical. The method, then:
A solution of 35% EMES+7% C8 amine oxide in water was prepared as described in the foregoing examples. […] The rheology of the solution was then tested using a 40 mm circular plate rheometer. A conditioning step was performed which brought the plate to 25° C., and a pre-shear step was carried out at 0.7958 Pa for 30 sec, and then the device was equilibrated until it reached 0 velocity. Then the main continuous ramp step began on the solution, which ran for 1 minute, and the shear stress was increased from 0.1 to 250 Pa. A total of 15 data points were collected, and the device remained at 25° C. the entire time. […] Solutions of about 40% or more EMES, however, required a slightly higher amine oxide content to remain flowable and pumpable, but the shear stress necessary was inordinately high. Therefore, for applications in which it may be desirable to pump the surfactant formulation, it is preferable to use 35% or lower EMES in the formulation.
We also evaluated whether or not inclusion of one or more additional components in the solution would improve the pumpability of high concentration EMES formulations. Specifically, ethanol or glycerine at about 5% to about 8% were included in formulations containing 35% EMES/7% C8 amine oxide.

Data set [4] is described as follows: Interfacial surface tension / CMC (detergency), pendant drop method, Kruss DSA100. The format is physicochemical. Particulars: 0 to 250 ppm in water; FIG. 1. An excerpt: First, we addressed the fact that MES has typically been thought of as a component that can show poor detergency. A surfactant's cleaning performance (i.e., detergency) can be measured directly by an examination of its interfacial tension (IFT) as a function of its critical micelle concentration (CMC, the concentration where the surfactant's monomers arrange themselves in a spherical shape so that their hydrophobic tails can trap oil). We therefore wanted to examine the suitability of various surfactants, including various types of MES, for use in reducing surface tension (i.e., detergency) over various surfactant concentrations. Surfactants were titrated in water at concentrations from 0 to 250 ppm (which is typical of “in use” conditions for surfactant formulations in household laundry methods), and the interfacial surface tension of these solutions was measured as a function of concentration using the pendant drop method on a Kruss DSA100 drop shape analyzer. […] As one of ordinary skill will readily understand, other tensiometric methods of determining interfacial surface tension can also be used, for example using a Du Nouy ring, drop volume, or bubble tensiometer; suitable instrumentation and methods for measuring surface tension using such approaches are well-known in the art. […]

Where [5] appears, read: material 2.00 % w/v in base detergent with 9.5% EMES, 1 week.
The mark [6] stands for this setting: material 2.00 % w/v in base detergent with 9.5% EMES, 3 cycles, -20° C.
The mark [7] stands for this setting: material 2.00 % w/v in base detergent with 9.5% EMES, 12 weeks.
The mark [8] stands for this setting: material 2.00 % w/v in base detergent with 9.5% EMES, 52 weeks.

With `CCCCCCCC[N+](C)(C)[O-]` [C8 AO, octyl dimethyl amine oxide], the “appearance of EMES solution with hydrotrope” value in data set [1] is given as “nearly clear, isotropic solution”.
`CCO` [Ethanol, Ethyl alcohol, reference compound]: the “125° F. storage” value in data set [2] (setting [5]) is given as “Pass”. The Freeze/Thaw storage result in data set [2] (setting [6]) was “Pass”. Moreover, in data set [2] (setting [7]), the “40° F. storage” value is on record as “Fail” and the “105° F. storage” value is “Pass”. The “Room Temp. storage” value in data set [2] (setting [8]) was “Pass”. Further, the “flowability of 35% EMES/7% C8 amine oxide with added agent” value in data set [3] was “worse”.
As for `CCCCCCCCCC[N+](C)(C)[O-]` [Genamino x DC40, Decyl dimethyl amine oxide], in data set [2], the “40° F. storage” value was “Fail”, the “105° F. storage” value is given as “Pass” and the “125° F. storage” value is listed as “Pass”. Besides, the Freeze/Thaw storage entry in data set [2] (setting [6]) was “Pass”. In data set [2] (setting [8]), the “Room Temp. storage” value is “Pass”.
As for `CC(O)CO` (stereo not shown) [Propylene glycol, Propylene glycol (1,2-propane diol), reference compound], in data set [2] (setting [5]), the “125° F. storage” value is “Pass”. For the same compound, the Freeze/Thaw storage result in data set [2] (setting [6]) is listed as “Pass”. In data set [2] (setting [7]), the “40° F. storage” value is on record as “Fail” and the “105° F. storage” value was “Pass”. The “Room Temp. storage” value in data set [2] (setting [8]) is “Pass”.
With `CCCCCCCC[N+](C)(C)[O-]` [Synthetic C8 3853-01, Octyl dimethyl amine oxide], in data set [2], the “40° F. storage” value is “Pass”, the “105° F. storage” value was “Pass” and the “125° F. storage” value is given as “Pass”. The Freeze/Thaw storage result in data set [2] (setting [6]) is “Pass”. In addition, the “Room Temp. storage” value in data set [2] (setting [8]) was “Pass”.
For the compound `C[N+](C)(C)CC(=O)O` [Tomamine LH, Betaine], in data set [2], the “40° F. storage” value is given as “Fail”, the “105° F. storage” value is listed as “Pass” and the “125° F. storage” value is on record as “Pass”. The Freeze/Thaw storage result in data set [2] (setting [6]) is reported as “Pass”. The “Room Temp. storage” value in data set [2] (setting [8]) is reported as “Pass”.
With `CCCCCCCCCCCC(=O)OCCOCCOCCOCCOCCOCCOCCOCCOCCOCCOCCOCCOCCOCCOCCOCCOCCOCCOCCOCCOCC(OCCOCCOCCOCCOCCOCCOCCOCCOCCOCCOCCOCCOCCOCCOCCOCCOCCOCCOCCOCCO)C1OCC(OCCOCCOCCOCCOCCOCCOCCOCCOCCOCCOCCOCCOCCOCCOCCOCCOCCOCCOCCOCCO)C1OCCOCCOCCOCCOCCOCCOCCOCCOCCOCCOCCOCCOCCOCCOCCOCCOCCOCCOCCOCCO` (stereo not shown) [Tween 20, Polysorbate 20], in data set [2], the “40° F. storage” value was “Fail”, the “105° F. storage” value is reported as “Pass”, the “125° F. storage” value is given as “Pass” and the Freeze/Thaw storage entry is listed as “Pass”. Further, the “Room Temp. storage” value in data set [2] is on record as “Pass”.
Consider Akkylglucoside [AG6206], for which, in data set [2], the “40° F. storage” value is “Fail”, the “105° F. storage” value is “Pass” and the “125° F. storage” value is given as “Pass”. The Freeze/Thaw storage result in data set [2] (setting [6]) is recorded as “Pass”. For the same compound, the “Room Temp. storage” value in data set [2] (setting [8]) is on record as “Pass”.
For “Glycerine (propane 1,2,3-triol) [reference compound]”, in data set [2], the “40° F. storage” value was “Fail”, the “105° F. storage” value is “Pass”, the “125° F. storage” value is listed as “Pass” and the Freeze/Thaw storage entry was “Pass”. In addition, the “Room Temp. storage” value in data set [2] was “Pass”. Besides, the “flowability of 35% EMES/7% C8 amine oxide with added agent” value in data set [3] is listed as “worse”.
As for Lauramine oxide [Ammonyx LO], in data set [2], the “40° F. storage” value is “Fail”, the “105° F. storage” value is given as “Pass” and the “125° F. storage” value is on record as “Pass”. Besides, in data set [2] (setting [6]), the Freeze/Thaw storage result is “Pass”. The “Room Temp. storage” value in data set [2] (setting [8]) was “Pass”.
Turning to Methyl ester sulfonate [MES], in data set [4], the “critical micelle concentration (CMC), compared with LAS, SLES” value is on record as “reaches its CMC the quickest” and the “interfacial tension (IFT), compared with LAS, SLES” value is listed as “lowest IFT at each concentration measured”.
“Sodium xylene sulfonate [reference compound]”: in data set [2], the “40° F. storage” value is recorded as “Fail”, the “105° F. storage” value was “Pass”, the “125° F. storage” value is given as “Pass” and the Freeze/Thaw storage entry is “Pass”. For the same compound, the “Room Temp. storage” value in data set [2] is recorded as “Pass”.

These data come from patent US9222059B2, “Cleaning formulations with improved surfactant solubility and methods of production and use thereof” (The Sun Products Corporation, priority 2011, dated 2015).
